Data taken from ChEMBL document CHEMBL1201862, “PubChem BioAssay data set” (2004).
Activity calls are given as the source filed them.

Assays:
HEK293 [1] = test: cells; conditions: Homo sapiens
HEK293 [2] = test: cells; conditions: Homo sapiens; remark: listed apart in the source
[3] = Trypanosoma cruzi growth suppression in host cells – NIH3T3 host cells, beta-gal luminescence, confirmation (AID 2044); format: functional, cell-based;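 note: intracellular parasites grown in NIH/3T3 mouse fibroblasts as host cells; luminescent beta-galactosidase reporter signal from transgenic T. cruzi replicating inside host cells; inhibitors lower the luminescence signal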
[4] = NIH3T3 cell viability loss – ATP luminescence, mouse fibroblasts, counter-screen, dose response (AID 2010); format: functional, cell-based;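 note: cells exposed to compound for about 90 hours before reading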
[5] = target: T1, Heat shock factor protein 1 (Mus musculus, UniProt P38532); test: enhancement of HSF1-driven luciferase signal – cell-based, NIH3T3, luminescence, dose retest, confirmation (AID 435004); format: functional;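 note: stress induced by proteasome inhibitor MG132 added 30 min after compound; luciferase reporter driven by HSF1 response element in NIH3T3 cells; actives raise luminescence as potentiators of the MG132 stress response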
T1 sequence (P38532 whole entry): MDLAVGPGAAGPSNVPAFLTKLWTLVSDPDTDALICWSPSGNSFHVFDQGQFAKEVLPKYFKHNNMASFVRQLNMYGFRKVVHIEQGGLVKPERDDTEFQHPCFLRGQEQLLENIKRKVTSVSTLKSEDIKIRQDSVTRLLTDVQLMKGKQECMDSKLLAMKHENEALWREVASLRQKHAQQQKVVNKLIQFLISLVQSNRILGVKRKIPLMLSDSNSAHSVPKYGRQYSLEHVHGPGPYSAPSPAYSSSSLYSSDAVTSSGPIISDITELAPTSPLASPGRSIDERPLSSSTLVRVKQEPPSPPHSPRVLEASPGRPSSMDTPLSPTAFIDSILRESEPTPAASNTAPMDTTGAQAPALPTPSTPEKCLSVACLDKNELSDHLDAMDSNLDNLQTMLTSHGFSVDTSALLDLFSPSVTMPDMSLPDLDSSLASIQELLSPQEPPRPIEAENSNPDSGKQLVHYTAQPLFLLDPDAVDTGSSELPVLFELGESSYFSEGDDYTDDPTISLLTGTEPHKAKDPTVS

[6] = target: T2, Replicative DNA helicase DnaB (Mycobacterium tuberculosis, UniProt P9WMR3); test: DnaB intein splicing inhibitors, dose response, biochemical, cell-free fluorescence (AID 449749); format: functional
T2 sequence (P9WMR3 whole entry): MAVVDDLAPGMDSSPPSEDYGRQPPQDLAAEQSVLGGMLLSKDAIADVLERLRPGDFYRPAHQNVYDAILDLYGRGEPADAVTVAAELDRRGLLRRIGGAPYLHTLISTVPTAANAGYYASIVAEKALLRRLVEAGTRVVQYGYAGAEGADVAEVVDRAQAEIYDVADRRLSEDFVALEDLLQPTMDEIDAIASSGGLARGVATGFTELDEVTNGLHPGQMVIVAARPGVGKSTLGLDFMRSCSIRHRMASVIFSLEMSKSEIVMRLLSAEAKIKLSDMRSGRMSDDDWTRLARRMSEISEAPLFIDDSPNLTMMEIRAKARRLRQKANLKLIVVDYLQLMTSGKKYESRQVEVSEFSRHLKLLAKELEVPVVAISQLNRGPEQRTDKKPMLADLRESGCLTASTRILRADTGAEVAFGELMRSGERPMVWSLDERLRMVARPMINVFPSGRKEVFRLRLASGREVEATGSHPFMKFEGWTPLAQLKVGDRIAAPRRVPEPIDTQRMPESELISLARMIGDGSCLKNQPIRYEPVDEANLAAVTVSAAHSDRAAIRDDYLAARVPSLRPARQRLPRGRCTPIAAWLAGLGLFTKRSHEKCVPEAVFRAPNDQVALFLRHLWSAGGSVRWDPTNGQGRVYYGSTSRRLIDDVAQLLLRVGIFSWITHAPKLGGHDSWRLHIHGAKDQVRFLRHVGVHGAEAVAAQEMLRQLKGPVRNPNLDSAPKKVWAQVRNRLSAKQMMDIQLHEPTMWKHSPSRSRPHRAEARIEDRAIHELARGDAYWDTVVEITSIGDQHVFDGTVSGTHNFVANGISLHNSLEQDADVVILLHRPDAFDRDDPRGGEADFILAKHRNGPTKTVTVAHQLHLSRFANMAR

Protein RecA = target: T3, Protein RecA (Mycobacterium tuberculosis, UniProt P9WHJ3); test: Fluorescence Cell-Free Homogeneous Dose Retest to Identify Inhibitors of RecA-Intein Splicing Activity. [Related pubchem assays (depositor defined):AID2097, AID2223, AID489010, AID492950]; format: functional
T3 sequence (P9WHJ3 whole entry): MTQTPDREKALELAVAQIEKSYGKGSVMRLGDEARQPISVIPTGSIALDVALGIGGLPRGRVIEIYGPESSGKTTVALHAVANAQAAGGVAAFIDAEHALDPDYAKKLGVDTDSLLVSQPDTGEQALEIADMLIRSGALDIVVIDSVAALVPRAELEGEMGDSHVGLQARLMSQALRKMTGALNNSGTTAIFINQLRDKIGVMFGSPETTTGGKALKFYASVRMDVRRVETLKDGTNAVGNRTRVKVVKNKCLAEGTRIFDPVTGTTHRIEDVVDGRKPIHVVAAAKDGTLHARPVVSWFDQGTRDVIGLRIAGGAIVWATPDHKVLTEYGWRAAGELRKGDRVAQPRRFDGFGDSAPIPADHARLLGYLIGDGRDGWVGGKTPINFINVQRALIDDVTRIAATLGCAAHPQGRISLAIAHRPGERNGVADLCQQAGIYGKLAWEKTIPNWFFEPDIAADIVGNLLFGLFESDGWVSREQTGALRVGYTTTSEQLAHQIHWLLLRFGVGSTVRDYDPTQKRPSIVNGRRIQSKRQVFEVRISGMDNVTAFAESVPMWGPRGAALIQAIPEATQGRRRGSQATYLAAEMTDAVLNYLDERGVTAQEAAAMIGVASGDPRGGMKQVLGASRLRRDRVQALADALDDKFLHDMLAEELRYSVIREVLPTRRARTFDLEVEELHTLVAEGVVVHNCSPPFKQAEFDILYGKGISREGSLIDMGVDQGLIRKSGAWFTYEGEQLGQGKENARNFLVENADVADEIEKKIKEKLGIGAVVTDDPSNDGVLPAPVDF

[7] = target: Beta-2 adrenergic receptor (Homo sapiens, UniProt P07550); test: ADRB2 activation measured by internalization – cell-based, FAP fluorogen, flow cytometry, cherry pick 1, dose response (AID 588763); format: functional
[8] = Fluorescence-based cell-based high throughput dose response assay for inhibitors of the interaction of nucleotide-binding oligomerization domain containing 2 (NOD2) and the receptor-interacting serine-threonine kinase 2 (RIPK2).; format: functional; conditions: Homo sapiens
[9] = A549 cell cytotoxicity, dose response, cytotoxicity control, plate reader, cherry-pick, antagonist series (AID 743412); format: functional, cell-based
[10] = toxicity toward HepG2 liver cells – cell-based, plate reader, cherry-pick, antagonist series, cytotoxicity control, dose response (AID 743416); format: functional
[11] = blockers of bursicon-stimulated LGR2 cAMP reporter – cell-based, HEK293, CRE-luciferase reporter, cherry pick, set 2, dose response (AID 743343); format: functional;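 note: transfected cells were stimulated with diluted bursicon conditioned medium after compound addition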
[12] = blockade of melanocortin 4 receptor signaling – cell-based, plate reader, cherry pick, counter-screen for LGR2 antagonist project, dose response (AID 743444); format: functional;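 note: transfected HEK 293 cells stimulated with alpha-MSH peptide; potency of inhibitors of the alpha-MSH evoked signal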
[13] = viability loss in HEK293 cells – cell-based, plate reader, cherry-picked samples, cytotoxicity control, dose response (AID 743446); format: functional
Coagulation factor XII = target: T4, Coagulation factor XII (Homo sapiens, UniProt P00748); format: functional;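 note: activated factor XIIa alpha cleaving a fluorogenic AMC peptide substrate; inhibitor potency from loss of enzyme activity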
T4 sequence (P00748 whole entry): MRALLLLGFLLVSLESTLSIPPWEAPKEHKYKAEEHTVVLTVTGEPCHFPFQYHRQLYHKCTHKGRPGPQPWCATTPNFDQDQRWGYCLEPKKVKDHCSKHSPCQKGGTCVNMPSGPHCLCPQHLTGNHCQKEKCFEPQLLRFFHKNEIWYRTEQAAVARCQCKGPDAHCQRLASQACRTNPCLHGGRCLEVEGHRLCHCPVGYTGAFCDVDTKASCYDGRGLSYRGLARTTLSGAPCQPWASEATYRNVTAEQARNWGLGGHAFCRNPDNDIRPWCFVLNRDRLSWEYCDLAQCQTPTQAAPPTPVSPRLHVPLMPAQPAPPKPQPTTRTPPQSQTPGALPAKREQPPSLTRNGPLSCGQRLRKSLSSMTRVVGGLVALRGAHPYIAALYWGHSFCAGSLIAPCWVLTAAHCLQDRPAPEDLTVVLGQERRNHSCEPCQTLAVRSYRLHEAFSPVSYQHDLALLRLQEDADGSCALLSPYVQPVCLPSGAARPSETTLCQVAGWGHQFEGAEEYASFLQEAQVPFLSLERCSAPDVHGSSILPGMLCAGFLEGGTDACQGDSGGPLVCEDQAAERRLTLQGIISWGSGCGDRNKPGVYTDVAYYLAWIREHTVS

[14] = target: Glucose-6-phosphate 1-dehydrogenase (Homo sapiens, UniProt P11413); test: inhibition of Homo sapiens G6PD, dose series – biochemical, fluorescence, selectivity assay for P. falciparum G6PD inhibitor project, dose response (AID 504792); format: functional
SUMO-activating enzyme = SUMO-activating enzyme (Homo sapiens, UniProt Q9UBT2); test: blockers of UBC9-mediated SUMO conjugation – biochemical, AlphaScreen, SUMOylation inhibitor project, confirmation (AID 2018); format: functional
Trypsin = Trypsin (Sus scrofa, UniProt P00761); test: trypsin protease activity blockade – biochemical, quenched peptide fluorescence, cherry-pick, selectivity assay for Rce1 protease inhibitor project, dose response (AID 488789)
[15] = viability of uninfected HEp-2 cells – cell-based, HTS, cytotoxicity control for RSV inhibitor project, dose response (AID 2410); format: functional; conditions: human respiratory syncytial virus
Bcl-2-related protein A1 = target: T5, Bcl-2-related protein A1 (Mus musculus, UniProt Q07440); format: functional;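 note: confirmatory dose–response counterscreen on Bfl-1, used to check hits from a UBC13 polyubiquitin inhibitor campaign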
T5 sequence (Q07440 whole entry): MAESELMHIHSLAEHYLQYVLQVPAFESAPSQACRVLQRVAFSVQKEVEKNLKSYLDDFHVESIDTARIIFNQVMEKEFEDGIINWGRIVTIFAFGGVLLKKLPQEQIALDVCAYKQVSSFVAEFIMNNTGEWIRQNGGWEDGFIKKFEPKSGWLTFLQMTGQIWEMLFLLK

[16] = target: T6, Ubiquitin-conjugating enzyme E2 N (Homo sapiens, UniProt P61088); format: functional
T6 sequence (P61088 whole entry): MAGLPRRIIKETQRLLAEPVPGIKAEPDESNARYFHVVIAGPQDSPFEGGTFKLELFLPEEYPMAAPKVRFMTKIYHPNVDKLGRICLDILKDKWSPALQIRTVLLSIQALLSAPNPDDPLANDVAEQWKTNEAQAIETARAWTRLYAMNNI

[17] = target: T6, Ubiquitin-conjugating enzyme E2 N; format: functional; remark: listed apart in the source
H9c2 = test: cells; format: functional, cell-based; conditions: Rattus norvegicus, H9c2, Myocardium;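 note: confirmatory concentration-response retest of ultra-high-throughput screening hits for modulation of myocardial damage; cell death induced by hydrogen peroxide oxidative stress; compound pretreatment for 60 min then peroxide exposure for 2 h; potency is for protecting the cells against peroxide damage rather than for killing them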
[18] = viability of PTEN-deleted HCT116 cells – cell-based, HCT116 PTEN knockout, dose response (AID 1047); format: functional;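 note: HCT116 colon tumor cells with PTEN knocked out; cells exposed to compound for 60 hours before readout; potency for loss of cell viability measured by luminescence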
[19] = viability of HCT116 lacking mutant beta-catenin – cell-based, human colon tumor, dose response (AID 1045); format: functional;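 note: HCT116 colon tumor cells with beta catenin knocked out; cells exposed to compound for 60 hours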
[20] = Luminescence Cell-Based Dose Retest to Confirm Inhibitors of Cancer Stem Cells. [Related pubchem assays (depositor defined):AID2717, AID2721]; format: functional; conditions: Homo sapiens

Beta-2 adrenergic receptor, sequence (P07550 whole entry, the tested form may be a part): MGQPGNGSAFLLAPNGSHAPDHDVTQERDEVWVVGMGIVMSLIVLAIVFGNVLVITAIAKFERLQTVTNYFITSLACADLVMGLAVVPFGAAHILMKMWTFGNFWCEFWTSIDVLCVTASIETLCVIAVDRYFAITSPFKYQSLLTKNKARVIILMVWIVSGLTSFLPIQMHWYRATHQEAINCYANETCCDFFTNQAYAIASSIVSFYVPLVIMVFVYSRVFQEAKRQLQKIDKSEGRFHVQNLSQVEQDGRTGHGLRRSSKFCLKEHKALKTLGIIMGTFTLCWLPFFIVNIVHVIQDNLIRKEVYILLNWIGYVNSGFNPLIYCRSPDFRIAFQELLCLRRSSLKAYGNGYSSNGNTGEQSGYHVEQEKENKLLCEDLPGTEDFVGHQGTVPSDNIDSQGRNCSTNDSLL
SUMO-activating enzyme, sequence (Q9UBE0 whole entry): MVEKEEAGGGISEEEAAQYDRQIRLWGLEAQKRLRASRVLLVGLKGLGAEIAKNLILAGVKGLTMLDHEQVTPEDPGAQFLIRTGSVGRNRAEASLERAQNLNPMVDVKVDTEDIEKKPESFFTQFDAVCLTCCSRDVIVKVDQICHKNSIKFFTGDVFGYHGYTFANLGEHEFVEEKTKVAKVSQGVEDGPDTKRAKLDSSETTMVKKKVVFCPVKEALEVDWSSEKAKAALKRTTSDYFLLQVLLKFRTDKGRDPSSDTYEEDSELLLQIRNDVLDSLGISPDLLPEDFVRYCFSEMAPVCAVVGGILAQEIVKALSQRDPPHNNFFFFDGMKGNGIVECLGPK
SUMO-activating enzyme, sequence (Q9UBT2 whole entry): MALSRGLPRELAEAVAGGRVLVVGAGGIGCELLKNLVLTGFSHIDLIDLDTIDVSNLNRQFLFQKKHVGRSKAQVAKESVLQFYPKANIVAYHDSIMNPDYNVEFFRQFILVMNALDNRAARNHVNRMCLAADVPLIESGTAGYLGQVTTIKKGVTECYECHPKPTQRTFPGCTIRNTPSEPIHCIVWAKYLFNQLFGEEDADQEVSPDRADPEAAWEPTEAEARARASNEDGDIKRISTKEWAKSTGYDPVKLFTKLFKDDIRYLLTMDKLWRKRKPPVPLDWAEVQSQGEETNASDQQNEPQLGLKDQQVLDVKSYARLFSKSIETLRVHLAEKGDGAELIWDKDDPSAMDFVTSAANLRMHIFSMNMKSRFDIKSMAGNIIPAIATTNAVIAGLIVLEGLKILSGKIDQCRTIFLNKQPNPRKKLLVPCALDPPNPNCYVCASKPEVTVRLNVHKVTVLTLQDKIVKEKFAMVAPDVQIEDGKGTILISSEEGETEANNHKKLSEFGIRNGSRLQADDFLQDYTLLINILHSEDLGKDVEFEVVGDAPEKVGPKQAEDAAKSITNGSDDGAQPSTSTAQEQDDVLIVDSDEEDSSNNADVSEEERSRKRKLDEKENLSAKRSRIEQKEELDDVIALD
Trypsin, sequence (P00761 whole entry): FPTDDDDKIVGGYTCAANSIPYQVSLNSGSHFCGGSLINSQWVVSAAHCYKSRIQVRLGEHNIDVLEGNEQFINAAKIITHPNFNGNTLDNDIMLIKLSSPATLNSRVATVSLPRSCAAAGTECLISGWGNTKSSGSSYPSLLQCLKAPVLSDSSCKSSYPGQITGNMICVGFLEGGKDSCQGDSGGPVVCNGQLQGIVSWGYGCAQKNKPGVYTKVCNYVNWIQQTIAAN
Glucose-6-phosphate 1-dehydrogenase, sequence (P11413 whole entry): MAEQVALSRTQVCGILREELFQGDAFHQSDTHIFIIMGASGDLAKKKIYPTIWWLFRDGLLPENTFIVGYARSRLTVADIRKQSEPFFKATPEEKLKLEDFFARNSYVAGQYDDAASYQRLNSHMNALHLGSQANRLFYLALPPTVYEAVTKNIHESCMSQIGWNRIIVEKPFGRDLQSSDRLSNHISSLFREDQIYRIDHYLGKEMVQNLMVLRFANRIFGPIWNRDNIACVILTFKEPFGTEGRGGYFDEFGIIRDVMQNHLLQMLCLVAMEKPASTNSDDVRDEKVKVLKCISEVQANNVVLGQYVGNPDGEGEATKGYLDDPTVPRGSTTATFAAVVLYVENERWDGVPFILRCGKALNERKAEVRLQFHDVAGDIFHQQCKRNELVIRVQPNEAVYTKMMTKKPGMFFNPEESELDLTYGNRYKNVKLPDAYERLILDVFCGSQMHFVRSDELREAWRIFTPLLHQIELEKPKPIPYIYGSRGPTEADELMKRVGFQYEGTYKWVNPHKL

With `CCCNC(=O)c1ccccc1NC(=O)c1ccccc1N(C)S(=O)(=O)c1ccc(C)cc1` the EC50 (HEK293 [1]) was > 59.6 µM (inactive) and the EC50 (HEK293 [2]) was > 59.6 µM (inactive).

With `CS(=O)(=O)c1ccc(C(=O)OCc2nnc(-c3ccccc3)o2)cc1[N+](=O)[O-]` the EC50 [3] was 4.95 µM (active), the EC50 [4] was 6.24 µM (active) and the EC50 [5] was 8.57 µM (inconclusive). For the same compound, the AC50 [6] was 7.57 µM (active), the EC50 (Protein RecA) was 2.66 µM (active) and the EC50 [7] was 19 µM (inactive). The IC50 [8] was 3.01 µM (active), the AC50 [9] was 6.14 µM (active) and the AC50 [10] was 8.73 µM (active). The AC50 [11] was 13.4 µM (active), the AC50 [12] was 20.2 µM (active) and the AC50 [13] was 12.1 µM (active). For the same compound, the EC50 (HEK293 [1]) was > 59.6 µM (inactive) and the EC50 (HEK293 [2]) was > 59.6 µM (inactive).

In the case of `Cc1ccc(N(CC(O)CN2C(=O)NC(C)(C)C2=O)S(=O)(=O)c2ccc(C)cc2)cc1` (stereo not drawn), the IC50 (Coagulation factor XII) was > 50 µM (inactive).

In the case of `CC(=O)OCC1(C)CN(c2ccccc2)NC1=O` (stereo not drawn), the IC50 [14] was 46.7 µM (inactive).

With `CCCCn1c(N)c(C(=O)OCCOC)c2nc3ccccc3nc21` the IC50 (SUMO-activating enzyme) was 38 µM (active).

With `COc1ccc(CSc2ccc(-c3nc4ccccn4c3NCc3ccccc3)cc2OC)cc1` the AC50 (Trypsin) was 4.45 µM (active) and the EC50 [7] was 1.32 µM (active).

With `COC(=O)Cc1c(C)nc2nc(-c3ccc(C)cc3)nn2c1O` the IC50 (Coagulation factor XII) was > 50 µM (inactive).

For `CCOC(=O)c1cccc(Nc2nc(-c3cccnc3)nc3ccccc23)c1`, the CC50 [15] was 14 µM (active), the IC50 (Bcl-2-related protein A1) was > 20 µM (inactive) and the IC50 [16] was 14.5 µM (active). The IC50 [17] was 15.2 µM (active) and the IC50 (H9c2) was 24 µM (active).

For `COc1ccnc2c1c(=O)n(Cc1ccc(Cl)cc1)c(=O)n2C`, the IC50 (Bcl-2-related protein A1) was 4.03 µM (active), the IC50 [16] was 11.7 µM (active) and the IC50 [17] was 8.22 µM (active).

With `Cc1ccc2cc(CN(C(=O)c3cccs3)c3ccccc3)c(O)nc2c1` the IC50 (Coagulation factor XII) was > 50 µM (inactive).

With `CC1CCN(S(=O)(=O)c2ccc3c(c2)C(=NO)c2cc(S(=O)(=O)N4CCC(C)CC4)ccc2-3)CC1` the EC50 [18] was 303 nM (active), the EC50 [19] was 265 nM (active) and the AC50 [20] was 584 nM (active). The EC50 (HEK293 [1]) was > 59.6 µM (inactive) and the EC50 (HEK293 [2]) was > 59.6 µM (inactive).

For `C#CCOCCOCCOCCNc1nc(N2CCOCC2)nc(N2CCN(C(=O)[C@H](CCCCN)n3cc(CN)nn3)CC2)n1`, the IC50 (Bcl-2-related protein A1) was > 20 µM (inactive), the IC50 [16] was 15.3 µM (active) and the IC50 [17] was > 20 µM (inactive).

In the case of `Cc1ccc(/C=N/NC(=O)c2cccc(S(=O)(=O)Nc3cccc(Cl)c3)c2)o1`, the IC50 (SUMO-activating enzyme) was 82.1 µM (active).

For `COc1cc(/C=N/NC(=O)CSCc2ccc([N+](=O)[O-])cc2)cc(OC)c1OC`, the IC50 (Bcl-2-related protein A1) was > 20 µM (inactive), the IC50 [16] was 4.56 µM (active) and the IC50 [17] was 7.06 µM (active).
